Assays:
[1] = Screening of water-soluble polymers / alkylammonium cations: recrystallization of supersaturated taxifolin/β-CD complex solution; type: physicochemical; conditions: taxifolin:choline/carnitine cations ratio 1:0.85, 96 h
Procedure: In order to examine which water-soluble polymers are particularly suitable for improving the stability and dissolution capacity of flavonoid-cyclodextrin complexes, a screening was carried out. For this purpose, first, a supersaturated taxifolin/β-CD complex solution was prepared by adding an excess of equimolar taxifolin/β-CD complex and subsequent heating to 35° C. and filtering off.

[2] = Stability examination taxifolin: color change of aqueous solutions; type: physicochemical; conditions: stored open, protected from light, room temperature
Procedure: In order to investigate the stability of the flavonoid taxifolin and the influence of thiamine and β-CD, experiments were also carried out in this regard. Since taxifolin forms red-brown oligomers upon breakdown, the detection is quite straightforward to carry out. Method: Three aqueous solutions were prepared in beakers containing I) 100 mg taxifolin in 150 ml distilled water II) 100 mg of Taxifolin+13 mg of thiamine HCl in 150 ml distilled water and III) 100 mg taxifolin+13 mg of thiamine HCl+373 mg of β-CD in distilled water. Samples were stored open and protected from light at room temperature and the color of the solution was checked every 24 h.

**Q.** With `C[N+](C)(C)C[C@H](O)CC(=O)[O-].O=C(O)C(O)C(O)C(=O)O` [L-Carnitine tartrate, L-carnitine tartrate] as the molecule, how does the “Recrystallization after 96 h” value [1] read?
**A.** The value was “Distinct”.

**Q.** What about the “Remark (change versus reference solution)” value [1] of the same molecule?
**A.** Its value is “No change”.

**Q.** With `O=C1c2c(O)cc(O)cc2O[C@H](c2ccc(O)c(O)c2)[C@H]1O` [Taxifolin reference, taxifolin] as the molecule, how does the “Time of color change” value ([2]; aqueous solution) read?
**A.** Its value is 48 h.

**Q.** What about the Color of solution [2] of the same molecule?
**A.** The Color of solution was “Red-brown”.
